Reference: article PMC4884984, “Identification of approved and investigational drugs that inhibit hypoxia-inducible factor-1 signaling” (Oncotarget, 2016)
Read-outs that look alike come from different tables or passages of the source. Each block holds one compound with its values, some of them ahead of it.

What was measured:
ME-180 cells = test: Cancer cell proliferation assay, ME-180; assay type: cell-based; settings: Homo sapiens, ME-180, 72 h, Table S8, 3 days; for Emax: read-out: ME-180 3-Day Viability Efficacy; for IC50: read-out: ME-180 3-Day Viability IC50
HIF-1α–NanoLuc = HIF-1α–NanoLuc reporter gene assay (qHTS primary and confirmatory screens); assay type: cell-based, human; settings: Homo sapiens
HRE–bla ME-180 cells = test: Viability (BLA): CellTiter-Glo counter screen in HRE–bla cells; assay type: cell-based, human; settings: for IC50 / Emax: Homo sapiens, ME-180, Table S7, confirmatory screen; for IC50: 1% O2, 18 h; for Emax: read-out: Viability (BLA) confirmatory Efficacy
[1] = tested on: HIF-1α–NanoLuc HCT116 cells; test: Viability (Luc): CellTiter-Glo counter screen in HIF-1α–NanoLuc cells; assay type: cell-based, human; settings: Table S7, 1% O2, 18 h
[2] = tested on: hypoxia response element-beta-lactamase (HRE–bla); test: HRE-bla reporter gene assay in ME-180 cells; assay type: cell-based, human; settings: Homo sapiens, ME-180, Table S7, confirmatory screen; for Emax: read-out: HRE–bla confirmatory Efficacy; for IC50: read-out: HRE–bla confirmatory IC50
HCT116 cells = test: Cancer cell proliferation assay, HCT116; assay type: cell-based, human; settings: Table S8, 3 days; for Emax / IC50: Homo sapiens, HCT-116, 72 h; for Emax: read-out: HCT116 3-Day Viability Efficacy; for IC50: read-out: HCT116 3-Day Viability IC50
[3] = Table S2, validation, read-out: Pathway inhibitors (validation) HIF-1α–NanoLuc Activity Efficacy
[4] = Table S2, validation, read-out: Pathway inhibitors (validation) HIF-1α–NanoLuc Activity IC50
[5] = Table S7, confirmatory screen, read-out: HIF-1α–NanoLuc confirmatory Efficacy
[6] = 18 h, read-out: IC50 (primary screen, HIF-1α–NanoLuc assay)
[7] = read-out: Efficacy (primary screen, HIF-1α–NanoLuc assay)
[8] = read-out: HIF-1α–NanoLuc confirmatory Efficacy
[9] = read-out: HIF-1α–NanoLuc primary Efficacy

IC50 (ME-180 cells): 18000 ± 1170 nM
IC50 (HIF-1α–NanoLuc; Table S2, primary screen, read-out: Pathway inhibitors (primary screen) HIF-1α–NanoLuc Activity IC50): 840 nM
IC50 (HIF-1α–NanoLuc; [4]): 13700 ± 930 nM
IC50 [2]: 5980 ± 690 nM
IC50 (HCT116 cells): 13200 nM
Compound: O=C(NOCC1CC1)c1ccc(F)c(F)c1Nc1ccc(I)cc1Cl [PD 184352]
Emax (ME-180 cells): 100 ± 7%
Emax (HIF-1α–NanoLuc; Table S2, primary screen, read-out: Pathway inhibitors (primary screen) HIF-1α–NanoLuc Activity Efficacy): 64%
Emax (HIF-1α–NanoLuc; [3]): 99 ± 2%
Emax (HIF-1α–NanoLuc; [5]): 99 ± 2%
Emax (HIF-1α–NanoLuc; Table S7, primary screen, read-out: HIF-1α–NanoLuc primary Efficacy): 64%
IC50 (HRE–bla ME-180 cells): 5930 ± 4080 nM
Viability (Luc) confirmatory IC50 [1]: Inactive
Emax [2]: 74 ± 5%
Emax (HCT116 cells): 97 ± 4%

Compound: C[C@@H]1O[C@@H](O[C@H]2C[C@@H](O)[C@]3(CO)[C@H]4[C@H](O)C[C@]5(C)[C@@H](C6=CC(=O)OC6)CC[C@]5(O)[C@@H]4CC[C@]3(O)C2)[C@H](O)[C@H](O)[C@H]1O [Ouabain]
Emax (ME-180 cells): 98 ± 4%
IC50 (ME-180 cells): 130 ± 10 nM
IC50 (HRE–bla ME-180 cells): 130 nM
Emax [2]: 94 ± 4%
IC50 [2]: 80 ± 10 nM
Emax (HCT116 cells): 73 ± 13%
IC50 (HCT116 cells): 630 ± 370 nM

Compound: COC[C@H]1OC(=O)c2coc3c2[C@@]1(C)C1=C(C3=O)[C@@H]2CCC(=O)[C@@]2(C)C[C@H]1OC(C)=O [Wortmannin]
Emax (ME-180 cells): 80 ± 3%
IC50 (ME-180 cells): 7000 ± 4330 nM
IC50 (HRE–bla ME-180 cells): 11400 ± 4790 nM
Emax (HRE–bla ME-180 cells): 47 ± 11%
Emax [2]: 91 ± 8%
IC50 [2]: 570 ± 170 nM
HCT116 3-Day Viability IC50 (HCT116 cells): Inactive

IC50 (ME-180 cells): 14400 ± 1970 nM
IC50 (HIF-1α–NanoLuc; [4]): 13600 ± 6380 nM
IC50 [2]: 4100 ± 700 nM
IC50 (HCT116 cells): 31800 ± 9410 nM
Compound: CCCS(=O)(=O)Nc1ccc(F)c(C(=O)c2c[nH]c3ncc(-c4ccc(Cl)cc4)cc23)c1F [Vemurafenib]
Emax (ME-180 cells): 92 ± 5%
Emax (HIF-1α–NanoLuc; [3]): 66 ± 6%
Emax (HIF-1α–NanoLuc; [5]): 66 ± 6%
IC50 (HRE–bla ME-180 cells): 16000 ± 8130 nM
Emax (HRE–bla ME-180 cells): 27 ± 10%
Viability (Luc) confirmatory IC50 [1]: Inactive
Emax [2]: 75 ± 11%
Emax (HCT116 cells): 63 ± 4%

IC50 (ME-180 cells): 15400 ± 1040 nM
IC50 (HIF-1α–NanoLuc; [4]): 14600 ± 3540 nM
IC50 [2]: 12000 ± 2250 nM
HCT116 3-Day Viability IC50 (HCT116 cells): Inactive
Compound: O=c1cc(N2CCOCC2)oc2c(-c3ccccc3)cccc12 [LY-294002]
Emax (ME-180 cells): 73 ± 4%
Emax (HIF-1α–NanoLuc; [3]): 50 ± 9%
Emax (HIF-1α–NanoLuc; [5]): 50 ± 9%
Viability (BLA) confirmatory IC50 (HRE–bla ME-180 cells; Table S7, 1% O2, 18 h): Inactive
Viability (Luc) confirmatory IC50 [1]: Inactive
Emax [2]: 35 ± 8%

Compound: COc1cccc2c1C(=O)c1c(O)c3c(c(O)c1C2=O)C[C@@](O)(C(C)=O)C[C@@H]3O[C@H]1C[C@H](N)[C@H](O)[C@H](C)O1 [Daunorubicin]
Emax (ME-180 cells): 101 ± 4%
IC50 (ME-180 cells): 170 ± 80 nM
IC50 (HIF-1α–NanoLuc; [6]): 750 nM
Emax (HIF-1α–NanoLuc; [7]): 51%
Emax (HIF-1α–NanoLuc; [8]): 98 ± 8%
Emax (HIF-1α–NanoLuc; [9]): 51%
Emax (HIF-1α–NanoLuc; read-out: Pathway inhibitors (primary screen) HIF-1α–NanoLuc Activity Efficacy): 50%
Emax (HIF-1α–NanoLuc; read-out: Pathway inhibitors (validation) HIF-1α–NanoLuc Activity Efficacy): 98 ± 8%
IC50 (HIF-1α–NanoLuc; read-out: Pathway inhibitors (validation) HIF-1α–NanoLuc Activity IC50): 1960 ± 350 nM
IC50 (HRE–bla ME-180 cells): 3280 ± 1230 nM
Viability (Luc) confirmatory IC50 [1]: Inactive
Emax [2]: 80 ± 5%
IC50 [2]: 1000 ± 440 nM
Emax (HCT116 cells): 79 ± 28%
IC50 (HCT116 cells): 2430 ± 1400 nM

Compound: C[C@@H]1O[C@@H](O[C@@H]2C=C3CC[C@@H]4[C@H](CC[C@]5(C)[C@@H](c6ccc(=O)oc6)CC[C@]45O)[C@@]3(C)CC2)[C@H](O)[C@H](O)[C@H]1O [Proscillaridin A]
Emax (ME-180 cells): 98 ± 2%
IC50 (ME-180 cells): 20 nM
IC50 (HIF-1α–NanoLuc; [6]): 10 nM
Emax (HIF-1α–NanoLuc; [7]): 101%
Emax (HIF-1α–NanoLuc; [8]): 103 ± 3%
IC50 (HIF-1α–NanoLuc; read-out: HIF-1α–NanoLuc confirmatory IC50): 10 nM
Emax (HIF-1α–NanoLuc; [9]): 101%
IC50 (HIF-1α–NanoLuc; read-out: HIF-1α–NanoLuc primary IC50): 10 nM
IC50 (HRE–bla ME-180 cells): 20 nM
Viability (Luc) confirmatory IC50 [1]: Inactive
Emax [2]: 93 ± 3%
IC50 [2]: 10 nM
Emax (HCT116 cells): 87 ± 20%
IC50 (HCT116 cells): 90 ± 30 nM
